Tests used:
[1] = test system: Androgen Receptor (AR) luciferase reporter in LNCaP prostate cancer cells; assay: Inhibition of Androgen Receptor Luciferase Expression; type: cell-based; conditions: 10 nM DHT, 4 hours, 1 uM bicalutamide, 1 uM enzalutamide, 5 or 10 uM 0032661
Experimental: After 4 hours, cell lysate was harvested. 50 μg protein lysates were used in a luciferase assay. The data, shown in FIG. 12, is expressed as relative luciferase units (RLU).

[2] = test system: PSA in LNCaP prostate cancer cells; assay: Inhibition of Increased Protein Levels of PSA (immunoblot); type: cell-based; conditions: 10 nM DHT, 18 hours, 5 uM enzalutamide, 10, 15 or 20 uM 0032661
Experimental: After 18 hours protein was harvested. SDS-PAGE followed by immunoblotting of samples was performed using standard techniques. Protein lysates were immunoblotted for the Androgen Receptor (AR), PSA, and Actin.

[3] = test system: estrogen receptor response gene (SDF) in MCF7 breast cancer cells; assay: Inhibition of Estrogen Receptor Target Gene Transcription (SDF qPCR); type: cell-based; conditions: MCF7, 10 nM estradiol, 4 hours
Experimental: After 4 hours, RNA was harvested and converted into cDNA. qPCR analysis for SDF was performed on all samples and normalized to expression of GAPDH. The data, shown in FIG. 7, is expressed as fold change relative to SDF expression of the cFBS sample.

Rac1 protein = target: T1, Rac1 protein (Homo sapiens, UniProt P63000); assay: Fluorescence Polarization Assay (Rac1 FP); type: binding; conditions: 125 nM his-tagged Rac1, 12.5 nM Bodipy-TR GTPγS, 30 minutes at 37° C.
T1 construct: purchased Cytoskeleton Inc. RC01
Summary of the method: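 His-tagged recombinant Rac1 (125 nM final) plus 12.5 nM Bodipy-TR GTPγS incubated with serially diluted compound for 30 min at 37 °C. Buffer: 20 mM Tris pH 7.5, 50 mM NaCl, 1 mM MgCl, 1 mM EDTA. Fluorescence polarization read at 590/625 nm excitation/emission.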

[4] = test system: MCF-7 human breast cancer cell line; assay: Cell Viability Assay (MCF7), PrestoBlue; type: cell-based; conditions: MCF7, 72 h, MCF-7 cells, three days after drug treatment
Summary of the method: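 MCF-7 cells seeded 24 hours before dosing with 0 to 200 μM compound (11 concentrations, 1% DMSO final) for three days. PrestoBlue (resazurin) added to 10% final, 1 hour incubation, fluorescence at ex 560/em 590 nm; percentage living cells relative to control wells.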

[5] = target: His-Rac1 / GST-PBD (PAK Binding Domain) (Homo sapiens, UniProt P63000); assay: Rac Activation AlphaScreen Assay (Rac1 AS); type: biochemical; conditions: 500 nM GTPγS, 37° C., 1 hour; 'positive' = signal generated was higher than the positive control
Experimental: AlphaScreen® assays were performed in 96-well microplates in a final reaction volume of 60 μl. Recombinant His-Rac1, recombinant GST-PBD (PAK Binding Domain), donor and acceptor beads (PerkinElmer), and inhibitors were incubated in exchange buffer (20 mM Tris pH 7.5, 50 mM NaCl, 1 mM MgCl2, 1 mM EDTA, 500 nM GTPγS (guanosine 5′-[γ-thio]triphosphate)) at 37° C. Readings were performed on a Tecan M1000 pro microplate reader after 1 hour.

[6] = test system: Androgen Receptor (AR) luciferase reporter in LNCaP prostate cancer cells; assay: LNCaP ARE Luciferase Assay; type: cell-based; conditions: 10 nM DHT, 4 hours, 1 uM bicalutamide, 1 uM enzalutamide, 5 or 10 uM 0032661
Experimental: LNCaP prostate cancer cells as well as LNCaP cells that overexpress the oncogenic androgen receptor splice variant (designated ARV7) were engineered to express an Androgen Receptor (AR) luciferase reporter (SABiosciences). […] After 4 hours, cell lysate was harvested. 50 μg protein lysates were used in a luciferase assay.

Compound: FC(F)(F)c1ccc2c(SCCCCCCn3cnc(CN4CCOCC4)c3)ccnc2c1 [Compound 0032661, 4-[[1-[6-[[7-(trifluoromethyl)-4-quinolyl]sulfanyl]hexyl]imidazol-4-yl]methyl]morpholine]
- androgen receptor luciferase expression (RLU) [1]: inhibit the androgen receptor luciferase expression
- increase in protein levels of PSA [2]: inhibit the increase in protein levels of PSA
- SDF gene expression, combination ([3]; 1 uM fulvestrant plus 5 uM 0032661): reduces SDF gene expression more than either single treatment alone
- estrogen receptor target gene transcription (SDF) ([3]; 1 uM fulvestrant, 5 or 10 uM 0032661): inhibit the estrogen receptor target gene transcription
- IC50 (Rac1 protein): 3.25 µM
- IC50 [4]: 6.6 µM
- IC50 [5]: 44.8 µM
- androgen receptor luciferase expression (fold activation) [6]: inhibit the androgen receptor luciferase expression
